# Assay results published in ChEMBL document CHEMBL1201862, “PubChem BioAssay data set” (2004).
#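 Step 1: Grow cells in 96-well plates. Step 2: Expose to compound for 48 hours at 5 concentrations. Step 3: Interpolate endpoints linearly; if unreached, use highest concentration. At the GI50, growth is halved.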 Activity calls are given as the source filed them. Rule as the data show it: active = GI50 up to about 1.1 µM and inactive = higher.
# Experiments:
# Experiment in all cases: inhibition of tumour cell growth, NCI panel, 48 h
# 786-0 = tested on: 786-0
# A549 = tested on: A549
# ACHN = tested on: ACHN
# BT-549 = tested on: BT-549
# CAKI-1 = tested on: CAKI-1
# COLO 205 = tested on: COLO 205
# DU-145 = tested on: DU-145
# EKVX = tested on: EKVX
# HCC 2998 = tested on: HCC 2998
# HCT-116 = tested on: HCT-116
# HCT-15 = tested on: HCT-15
# HL-60 = tested on: HL-60
# HOP-62 = tested on: HOP-62
# HOP-92 = tested on: HOP-92
# HT-29 = tested on: HT-29
# Hs-578T = tested on: Hs-578T
# IGROV-1 = tested on: IGROV-1
# K562 = tested on: K562
# KM12 = tested on: KM12
# LOX IMVI = tested on: LOX IMVI
# M14 = tested on: M14
# MCF7 = tested on: MCF7
# MDA-MB-231 = tested on: MDA-MB-231
# MDA-MB-435 = tested on: MDA-MB-435
# MDA-N = tested on: MDA-N
# MOLT-4 = tested on: MOLT-4
# Malme-3M = tested on: Malme-3M
# NCI-H226 = tested on: NCI-H226
# NCI-H23 = tested on: NCI-H23
# NCI-H460 = tested on: NCI-H460
# NCI-H522 = tested on: NCI-H522
# NCI/ADR-RES = tested on: NCI/ADR-RES
# OVCAR-3 = tested on: OVCAR-3
# OVCAR-4 = tested on: OVCAR-4
# OVCAR-5 = tested on: OVCAR-5
# OVCAR-8 = tested on: OVCAR-8
# PC-3 = tested on: PC-3
# RPMI-8226 = tested on: RPMI-8226
# RXF 393 = tested on: RXF 393
# SF-268 = tested on: SF-268
# SF-295 = tested on: SF-295
# SF-539 = tested on: SF-539
# SK-MEL-28 = tested on: SK-MEL-28
# SK-MEL-5 = tested on: SK-MEL-5
# SK-OV-3 = tested on: SK-OV-3
# SN12C = tested on: SN12C
# SNB-19 = tested on: SNB-19
# SNB-75 = tested on: SNB-75
# SR = tested on: SR
# SW-620 = tested on: SW-620
# T47D = tested on: T47D
# TK-10 = tested on: TK-10
# U-251 = tested on: U-251
# UACC-62 = tested on: UACC-62
# UO-31 = tested on: UO-31
smiles,measurement,setting,value
COc1ccc(-c2cc(-c3ccc(C)cc3)n(C3OC(COC(C)=O)C(OC(C)=O)C(OC(C)=O)C3OC(C)=O)c(=S)c2C#N)cc1 (stereo not given),GI50,786-0,> 100 µM (inactive)
same,GI50,A549,> 100 µM (inactive)
same,GI50,ACHN,> 100 µM (inactive)
same,GI50,BT-549,> 100 µM (inactive)
same,GI50,CAKI-1,> 100 µM (inactive)
same,GI50,COLO 205,> 100 µM (inactive)
same,GI50,DU-145,> 100 µM (inactive)
same,GI50,EKVX,> 100 µM (inactive)
same,GI50,HCC 2998,> 100 µM (inactive)
same,GI50,HCT-116,> 100 µM (inactive)
same,GI50,HCT-15,> 100 µM
same,GI50,HL-60,49.3 µM (inactive)
same,GI50,HOP-62,37.1 µM (inactive)
same,GI50,HOP-92,> 100 µM (inactive)
same,GI50,HT-29,> 100 µM (inactive)
same,GI50,Hs-578T,36.6 µM (inactive)
same,GI50,IGROV-1,> 100 µM (inactive)
same,GI50,K562,> 100 µM (inactive)
same,GI50,KM12,> 100 µM (inactive)
same,GI50,LOX IMVI,> 100 µM (inactive)
same,GI50,M14,> 100 µM (inactive)
same,GI50,MCF7,> 100 µM (inactive)
same,GI50,MDA-MB-231,> 100 µM (inactive)
same,GI50,MDA-MB-435,> 100 µM (inactive)
same,GI50,MDA-N,> 100 µM (inactive)
same,GI50,MOLT-4,> 100 µM (inactive)
same,GI50,Malme-3M,> 100 µM (inactive)
same,GI50,NCI-H226,> 100 µM (inactive)
same,GI50,NCI-H23,> 100 µM (inactive)
same,GI50,NCI-H460,> 100 µM (inactive)
same,GI50,NCI-H522,> 100 µM (inactive)
same,GI50,NCI/ADR-RES,> 100 µM (inactive)
same,GI50,OVCAR-3,> 100 µM (inactive)
same,GI50,OVCAR-4,29.2 µM (inactive)
same,GI50,OVCAR-5,> 100 µM (inactive)
same,GI50,OVCAR-8,> 100 µM (inactive)
same,GI50,PC-3,> 100 µM (inactive)
same,GI50,RPMI-8226,> 100 µM (inactive)
same,GI50,RXF 393,79.4 µM (inactive)
same,GI50,SF-268,> 100 µM (inactive)
same,GI50,SF-295,> 100 µM (inactive)
same,GI50,SF-539,57.5 µM (inactive)
same,GI50,SK-MEL-28,> 100 µM (inactive)
same,GI50,SK-MEL-5,> 100 µM (inactive)
same,GI50,SK-OV-3,> 100 µM (inactive)
same,GI50,SN12C,> 100 µM (inactive)
same,GI50,SNB-19,90.6 µM (inactive)
same,GI50,SNB-75,27 µM (inactive)
same,GI50,SR,> 100 µM (inactive)
same,GI50,SW-620,> 100 µM (inactive)
same,GI50,T47D,> 100 µM (inactive)
same,GI50,TK-10,> 100 µM (inactive)
same,GI50,U-251,50.1 µM (inactive)
same,GI50,UACC-62,> 100 µM (inactive)
same,GI50,UO-31,> 100 µM (inactive)
